{
  "source": "patent US20050143356A1",
  "about": "“Selective inhibition of cyclooxygenase 1 in the treatment of diabetic nephropathy” (Vanderbilt University, priority 2003, published 2005)",
  "key": {"C57BLKS db/db mice [1]": {"test_system": "C57BLKS db/db mice", "assay": "Kidney histopathology (mesangial expansion) in diabetic db/db mice", "format": "in vivo, mouse", "details": "treated vs. untreated (severe mesangial expansion in untreated)", "description": "(§1) The C57BLKS db/db mice is a rodent model of type II diabetes mellitus. A LepR^db (db) mutation on chromosome 4 (G→T point mutation) has been identified in the leptin receptor gene. This mutation generates a new donor splice site, leading to prematurely termination of the intracellular domain of leptin receptor and lack of leptin signal transduction. C57BLKS db/db strain is more susceptible to the development of diabetic nephropathy than the C57BL/6J db/db strain. Animals are characterized by obesity, insulin resistance, diabetes and diabetic nephropathy (DN). […] Pathologic changes include mesangial matrix expansion (>50% increase in the majority of glomeruli) and GBM thickening >25%, absence of GBM electron dense material by EM, arteriolar hyalinosis (any degree) and tubulo-interstitial fibrosis.\n(§2) Cyclooxygenase-1 (COX-1) is also abundantly expressed in the kidney, however its role in health and disease remains poorly defined. […] Diabetic mice were provide the COX-1 inhibitor for 6 months, while control diabetic mice given vehicle alone. […] Glomerular filtration rate was also determined using FITC-inulin clearance."}, "C57BLKS db/db mice [2]": {"test_system": "C57BLKS db/db mice", "assay": "Body weight gain, blood sugar and glycosylated hemoglobin in diabetic db/db mice", "details": "diabetic db/db mice vs. vehicle treated controls, 6 months", "description": "as §1\nInhibitor was given for 6 months, while the control diabetic mice were given vehicle alone (n=8 per group). Blood samples were drawn for analysis of glucose and glycosylated hemoglobin (HbA1c) monthly. The urine samples were collected monthly and albumin/creatinine ratio was determined by enzyme linked immunosorbent assays (Exocell Inc, PA, USA). Glomerular filtration rate (GFR) was determined using FITC-inulin clearance based on plasma elimination rate following single bolus intravenous injection.\nas §2"}},
  "data": [
    {"smiles": "COc1ccc(-n2nc(C(F)(F)F)cc2-c2ccc(Cl)cc2)cc1", "note": "[SC8560]", "values": [
      {"measurement": "mesangial expansion (histopathology)", "setting": "C57BLKS db/db mice [1]", "value": "less pronounced"},
      {"measurement": "effect on Hb1C", "setting": "C57BLKS db/db mice [2]", "value": "did not affect"},
      {"measurement": "effect on blood sugar", "setting": "C57BLKS db/db mice [2]", "value": "did not affect"},
      {"measurement": "effect on body weight gain", "setting": "C57BLKS db/db mice [2]", "value": "did not affect"}
    ]}
  ]
}
